Results: patent US20080119462A1, “METHOD FOR TREATING VASCULAR HYPERPERMEABLE DISEASE” (Sucampo AG, priority 2003, published 2008)

How the values were obtained:
Human plasma SSAO = target: T1, Human plasma SSAO (Homo sapiens, UniProt Q16853); experiment: Radiochemical-enzyme assay of VAP-1 enzyme (SSAO) activity with 14C-benzylamine, human plasma; type: biochemical
T1 construct: The enzyme suspension prepared from blood plasma was pre-incubated with Compound A; from tissue; host or cells: human blood plasma
T1 sequence (Q16853 27-763 limits assumed): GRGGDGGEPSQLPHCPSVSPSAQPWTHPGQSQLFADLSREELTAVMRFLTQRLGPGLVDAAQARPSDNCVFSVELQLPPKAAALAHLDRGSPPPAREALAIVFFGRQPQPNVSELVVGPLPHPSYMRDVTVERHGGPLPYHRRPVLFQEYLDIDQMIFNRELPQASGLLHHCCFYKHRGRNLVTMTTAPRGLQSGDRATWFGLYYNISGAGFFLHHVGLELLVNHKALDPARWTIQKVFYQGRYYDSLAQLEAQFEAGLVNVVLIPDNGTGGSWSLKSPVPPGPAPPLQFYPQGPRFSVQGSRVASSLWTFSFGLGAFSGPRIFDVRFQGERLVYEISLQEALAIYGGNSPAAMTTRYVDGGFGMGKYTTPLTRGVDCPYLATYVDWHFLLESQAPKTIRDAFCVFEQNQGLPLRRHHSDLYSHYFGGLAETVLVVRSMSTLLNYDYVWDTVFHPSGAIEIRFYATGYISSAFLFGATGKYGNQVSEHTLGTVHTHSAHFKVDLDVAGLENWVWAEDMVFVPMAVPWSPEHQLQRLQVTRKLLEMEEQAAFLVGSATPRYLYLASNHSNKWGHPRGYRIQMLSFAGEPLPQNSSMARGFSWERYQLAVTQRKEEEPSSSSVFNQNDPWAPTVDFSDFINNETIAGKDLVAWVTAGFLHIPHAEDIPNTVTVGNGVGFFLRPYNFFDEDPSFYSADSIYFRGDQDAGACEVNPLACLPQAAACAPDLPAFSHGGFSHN
Experimental: VAP-1 enzyme (SSAO) activity in both human and rat plasma was determined by a radiochemical-enzyme assay using ^14C-benzylamine as artificial substrate. The enzyme suspension prepared from blood plasma was pre-incubated with Compound A in 96-well microplate at room temperature for 30 min. The enzyme suspension was then incubated with ^14C-benzylamine (2×10^−5 mol/l final concentration) in a final volume of 50 μl at 37° C. for 1 hour. The enzyme reaction was terminated by adding 2 mol/l (50 μl) citric acid. The oxidized products were directly extracted into a 200 μl toluene scintillator, and its radioactivity was measured by a scintillation spectrometer. Monoamine oxidase (MAO) and diamine oxidase (DAO, histaminase) activities were also determined by similar method using ^14C-phenylethylamine and ^14C-putrescine as substrate, respectively. Cloned DAO from cDNA libraries was used in human DAO assay. Inhibition activity was expressed as IC50 (μmol/l) value.

diabetic rats = experiment: Ocular permeability in STZ diabetic rats (leakage of fluorescein into the vitreous); type: in vivo, rat; settings: 10 mg/kg, s.c. u.i.d., daily from 2 weeks after STZ for 2 weeks, mean ± S.E.M., 10 rats
Experimental: Diabetes in rats was induced with an intraperitoneal (i.p.) injection of 65 mg/ml/kg of streptozotocin (STZ) in 2 mmol/l citrate buffer (pH 4.5) after a 20-h fast. At the same time control rats were injected with an equal volume of 2 mmol/l citrate buffer. Plasma glucose level was checked by a calorimetric method. At day 3 of STZ treatment, the rats were diagnosed with diabetes showing a plasma glucose level of 350 mg/dl.
The treatment of Compound A was given daily from 2 weeks after STZ treatment for 2 weeks. At 24 hrs after final treatment of Compound A, the vascular permeability in oculus was investigated based on the leakage of dye into the vitreous 30 min after intravenous injection of fluorescein solution (40 mg/ml/kg). Permeability was expressed as vitreous/plasma ratio of fluorescein concentration measured by a fluorophotometer. At the same time, the plasma SSAO activity was checked by the radiochemical-enzyme assay using ^14C-benzylamine (2×10^−5 mol/l final concentration) as substrate.
In the same manner as in Example 2, the effect of various VAP-1 inhibitors on ocular permeability was determined in diabetic rats.

retinal VAP-1 = target: T2, retinal VAP-1 (Rattus norvegicus, UniProt O08590); experiment: Retinal VAP-1 activity in STZ diabetic rats after eye-drop instillation; type: in vivo
T2 construct: from tissue; host or cells: retina of STZ diabetic rats
T2 sequence (O08590 1-763): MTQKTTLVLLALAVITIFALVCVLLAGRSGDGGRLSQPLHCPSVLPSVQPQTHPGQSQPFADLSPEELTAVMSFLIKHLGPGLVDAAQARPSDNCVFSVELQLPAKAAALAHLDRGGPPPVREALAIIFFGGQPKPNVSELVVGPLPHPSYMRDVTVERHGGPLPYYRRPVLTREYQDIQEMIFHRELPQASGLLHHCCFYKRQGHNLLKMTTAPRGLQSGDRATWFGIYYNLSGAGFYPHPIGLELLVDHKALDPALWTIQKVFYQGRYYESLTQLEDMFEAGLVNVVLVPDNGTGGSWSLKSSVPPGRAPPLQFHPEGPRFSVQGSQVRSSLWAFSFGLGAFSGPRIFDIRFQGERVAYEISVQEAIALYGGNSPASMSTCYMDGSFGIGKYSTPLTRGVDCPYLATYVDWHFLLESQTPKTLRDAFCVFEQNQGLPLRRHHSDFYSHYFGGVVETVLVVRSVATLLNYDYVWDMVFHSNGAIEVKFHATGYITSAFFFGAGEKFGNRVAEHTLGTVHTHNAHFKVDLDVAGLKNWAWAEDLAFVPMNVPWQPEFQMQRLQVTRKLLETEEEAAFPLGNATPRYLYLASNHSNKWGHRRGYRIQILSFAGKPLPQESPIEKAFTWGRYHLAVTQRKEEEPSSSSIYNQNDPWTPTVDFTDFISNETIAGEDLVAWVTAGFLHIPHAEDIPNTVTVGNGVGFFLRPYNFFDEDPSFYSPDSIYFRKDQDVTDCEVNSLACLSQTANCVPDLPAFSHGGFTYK
Experimental: A 0.1% solution of Compound A was instilled into the eyes of STZ diabetic rats (10 μl/eye) prepared in the same manner as in Example 2. To the normal group and STZ control group, a vehicle was instilled. At 6 hours from the instillation, the retina was removed from the animals and the retinal VAP-1 activity was determined.

Structure (SMILES): CC(=O)Nc1nc(CCc2ccc(NC(=N)N)cc2)cs1 [Compound A, N-{4-[2-(4-{[amino(imino)methyl]amino}phenyl)ethyl]-1,3-thiazol-2-yl}acetamide]
- Inhibition of the enzyme activity of human plasma SSAO (in words) (Human plasma SSAO): completely inhibited
- IC50 (Human plasma SSAO; 30 min pre-incubation, 14C-benzylamine 2×10^−5 mol/l, 37° C., 1 hour, read-out: Inhibitory effect (IC50 values) Human plasma SSAO): 150 nM
- Vitreous/Plasma Ratio of Fluorescein Concentration (diabetic rats): 5.39 ± 0.73 ×10^−3
- Effect on the increased retinal VAP-1 activity in STZ diabetic rats (in words) (retinal VAP-1; 0.1% solution instilled into the eyes, 6 hours): completely inhibited
- Retinal VAP-1 activity (retinal VAP-1; STZ diabetic rats, 0.1%, ocular instillation (10 μl/eye), 6 hours after instillation, mean ± S.E.M., 4 rats): 4.86 ± 0.70 pmol/min/mg protein
